Data published in patent EP3820879B1, “PHOSPHORUS-CONTAINING PRODRUGS OF GEMCITABINE” (Changchun Changcheng Pharmaceutical Technology Co., LTD, priority 2018, dated 2020).

Experiment: Mouse pharmacokinetic study: liver concentrations of dFdC and dFdU at 2h
Assay type: in vivo, C57BL/6 mice
Conditions: i.v., Gemcitabine 15 mg/kg or Compound 4 at equivalent dose, Fig. 2
Experimental: C57BL/6 mice used in this experiment were purchased from Beijing Vital River Laboratory Animal Technology Co., Ltd., and male mice with a body weight in the range of 16~19 g were tested for administration. The animals were housed with appropriate air conditions (temperature: 20~25 °C; humidity: 40%~70%; light/dark cycle: 12 hours), and were provided with the food and water ad lib.
The solution media for IV administration were DMSO: 30% solutol HS-15:saline = 10:10:80 (v/v/v). Test substances were dissolved in the media to obtain a clear solution, and filtered through PTFE to get a colorless clear solution for IV administration.
The solution media for oral administration were DMSO: 30% solutol HS-15:saline = 10:10:80 (v/v/v). […]
The pharmacokinetic (PK) profile of liver-targeted gemcitabine (dFdC) prodrug according to Formula I (i.e., Compound 4) was evaluated in male […] mice following intravenous administration (i.v.) at an equivalent dose to 15 mg/kg of Gemcitabine or following oral administration (PO or i.g.) at a dose of 80 mg/kg.
Blood samples of designated animals (n = 3/time point/compound) were taken at 0.083, 0.25, 0.5, 1, 2, 4, and 8 hours following i.v. administration, and at 0.25, 0.5, 1, 2, 4, 8 and 24 hours following PO administration, respectively. […] Pharmacokinetic parameters were calculated using WinNonlin software (Pharsight Corp., Mountain View, CA).

Nc1ccn([C@@H]2O[C@H](CO)[C@@H](O)C2(F)F)c(=O)n1 [Gemcitabine, 2',2'-difluoro-2'-deoxycytidine]
dFdC levels in the liver: no detectable dFdC levels
dFdU levels in the liver: significant levels of dFdU
